Consider 88 compounds from the Bradley open melting point set (2014).

Several values for one entry are separate records, joined by “and”; a condition that tells them apart may be missing. Identical values can stand only once. Counter-ions that a name gives are not always drawn.

For the compound `O=C(O)/C=C/c1ccc(F)cc1F` [trans-2,4-difluorocinnamic acid], the melting point – broadly, the temperature of the solid-liquid transition – stood at 217 °C.

In turn, `OC[C@H]1O[C@H](O[C@H]2[C@H](O)[C@@H](O)[C@@H](O[C@H]3[C@H](O)[C@@H](O)C(O)O[C@@H]3CO)O[C@@H]2CO)[C@H](O)[C@@H](O)[C@@H]1O` (stereo partly drawn) gave a melting point of 133 °C.

Turning to `COC(=O)c1ccc(-c2cccc([N+](=O)[O-])c2)cc1` [methyl 3'-nitrobiphenyl-4-carboxylate], the melting point was 143 °C.

In the case of `COc1ccc(O)cc1` [4-methoxyphenol], the melting point was determined as 56 °C.

The compound `c1ccc(/N=N/c2ccccc2)cc1` [(E)-Diphenyldiazene] yielded a melting point of 68.5 °C.

Take `CCC1CO1` (stereo not drawn) [2-Ethyloxirane]: the melting point is -60 °C.

Compound `COc1ccccc1-c1ccc(C=C(C(C)=O)C(C)=O)o1` [3-{[5-(2-Methoxyphenyl)-2-furyl]methylene}pentane-2,4-dione] gave a melting point of 146 °C.

As for `O=[N+]([O-])c1cc(F)ccc1O` [4-fluoro-2-nitrophenol], the melting point worked out at 75 °C.

For the compound `O=C1Nc2c(Br)cccc2C1=O` [7-bromoisatin], the melting point is 197 °C.

With `COc1ccc([N+](=O)[O-])cc1N` [2-Methoxy-5-nitroaniline], the melting point was 118 °C.

The compound `N#CC1(c2ccccc2)C=Cc2ccccc21` (stereo not drawn) [1-phenyl-1H-indene-1-carbonitrile] registered a melting point of 77 °C.

Compound `Nc1ccccc1` [aniline] registered a melting point of -6 °C.

In turn, `O=C1c2ccccc2C(=O)N1c1nc2ccccc2[nH]1` [2-(1H-Benzimidazol-2-yl)-1H-isoindole-1,3(2H)-dione] yielded a melting point of 274 °C.

`CSc1[nH]nc(N)c1C#N` [3-amino-5-methylthio-1h-pyrazole-4-carbonitrile] showed a melting point of 149 °C.

`CCN1C(=O)C=CC1=O` [N-ethylmaleimide] had a melting point of 45 °C.

`NC(N)=S` [Thiourea]: the melting point was determined as 176 °C.

`CN1CCCN(C)CCN(C)CCCN(C)CC1` [1,4,8,11-tetramethyl-1,4,8,11-tetraazacyclotetradecane] showed a melting point of 35 °C.

Compound `CCN(CC)c1ccc2c(C)cc(=O)oc2c1` [7-diethylamino-4-methylcoumarin] displayed a melting point of 74 °C.

`CN(C)c1cccc2c(S(=O)(=O)Cl)cccc12` [dansyl chloride] yielded a melting point of 72 °C.

On to `CC(=O)Nc1ccc(C(=O)O)cc1` [4-acetamidobenzoic_acid], for which the melting point worked out at 259 °C.

On to `O=C1C=C(/C=C/c2ccccc2)CCC1` [3-[(E)-2-phenylethenyl]cyclohex-2-en-1-one], for which the melting point turned out to be 66 °C.

The compound `COc1ccc(N)cc1` [p-anisidine] showed a melting point of 58 °C.

For the compound `COc1cccc(N)c1` [m-anisidine], the melting point was found to be 0 °C.

For `CN(C)C(=O)Nc1ccc(Cl)cc1` [N-(4-chlorophenyl)-N',N'-dimethylurea], the melting point was determined as 173 °C.

For `CO[C@H]1O[C@H](CO)[C@@H](O)[C@H](O)[C@H]1O` [methyl alpha-d-glucopyranoside], the melting point was 169 °C.

Compound `CCCCCCCCCCCCCCCCCl` [1-chlorohexadecane] gave a melting point of 9 °C.

Consider `O=S(=O)(Cl)c1cccc(Cl)c1Cl` [2,3-dichlorobenzenesulfonyl chloride], for which the melting point was 60 °C.

In the case of `O=C(/C=C/c1ccccc1)c1ccc(O)cc1` [4'-hydroxychalcone], the melting point is 176 °C.

Consider `C(=C\c1ccccc1)/c1ccccc1` [trans-stilbene], for which the melting point came to 124 °C.

On to `CCCCCCCCC(C)=O` [2-decanone], for which the melting point was 3 °C.

Take `COc1ccc2c(c1)c(CC(=O)O)c(C)n2C(=O)c1ccc(Cl)cc1` [Indomethacin]: the melting point came out at 159 °C.

The compound `CC=C(C)Br` [2-bromo-trans-2-butene] gave a melting point of -115 °C.

Take `Clc1cc(Cl)c(Cl)cc1Cl` [1,2,4,5-tetrachlorobenzene]: the melting point is 139 °C (2×) and 140 °C.

In the case of `Cc1ccc(C(=O)Cl)cc1` [p-toluoyl chloride], the melting point was -2 °C.

On to `CCc1ccc2c(c1)C(=O)c1ccccc1C2=O` [2-Ethylanthraquinone], for which the melting point turned out to be 109 °C.

For `CCOc1ccc(NC(C)=O)cc1` [Phenacetin], the melting point is 135 °C.

Take `Cc1cc(N)n[nH]1` [3-amino-5-methyl-1h-pyrazole]: the melting point amounted to 45 °C.

Compound `OCCCCCCCCO` [1,8-octanediol] displayed a melting point of 60 °C.

The compound `CC(=O)N(Nc1ccccc1/N=N/c1ccccc1)c1ccccc1` [N-phenyl-N'-{2-[(E)-phenyldiazenyl]phenyl}acetohydrazide] yielded a melting point of 103 °C.

Take `CCCCBr` [1-bromobutane]: the melting point was -112 °C.

As to `COc1cc(C(=O)c2ccc(-c3ccccc3)cc2)c([N+](=O)[O-])cc1OC` [biphenyl-4-yl(4,5-dimethoxy-2-nitrophenyl)methanone], the melting point was found to be 145 °C.

As for `Cc1noc(NS(=O)(=O)c2ccc(N)cc2)c1C` [sulfisoxazole], the melting point is 191 °C and 194 °C.

Compound `Nc1ccc(OCCCCCN2C(=O)c3ccccc3C2=O)cc1` [amphotalide] registered a melting point of 113 °C.

As for `COc1cc([C@@H]2c3cc4c(cc3[C@@H](O[C@@H]3O[C@@H]5CO[C@@H](C)O[C@H]5[C@H](O)[C@H]3O)[C@H]3COC(=O)[C@H]23)OCO4)cc(OC)c1O` [Etoposide], the melting point was 244 °C.

`CC(O)CO` (stereo not drawn) [1,2-propanediol]: the melting point is -60 °C.

Compound `OC/C(Br)=C(\Br)CO` [(2E)-2,3-Dibromobut-2-ene-1,4-diol] had a melting point of 113 °C.

As to `Nc1cccc2ccc(O)cc12` [8-amino-2-naphthol], the melting point was found to be 208 °C.

`CC(C)C(=O)c1ccccc1` [isobutyrophenone] registered a melting point of 1 °C.

The compound `C=CCCCC` [1-hexene] displayed a melting point of -140 °C.

In turn, `CCCCCCCCCCCCCCCCCO` [Heptadecan-1-ol] had a melting point of 57 °C.

In turn, `CCCCCCCCCCCCCCCO` [1-pentadecanol] yielded a melting point of 46 °C.

Regarding `CN(C)C(=O)Nc1ccccc1` [Fenuron], the melting point was found to be 132 °C.

In turn, `O=S(F)F` [Thionyl difluoride] came in with a melting point of -110 °C.

For the compound `COc1ccc(Cl)cc1I` [4-chloro-2-iodoanisole], the melting point came to 46 °C.

For `O=C(O)c1cc(=O)[nH]c(=O)[nH]1` [orotic acid], the melting point is 346 °C.

`C=Cc1ccccc1O` [o-vinyl_phenol] displayed a melting point of 29 °C.

Consider `CCOC=O` [ethyl formate], for which the melting point is -81 °C.

In turn, `OC[C@H]1O[C@](O)(CO)[C@@H](O)[C@@H]1O` [D-fructose] returned a melting point of 108 °C.

In the case of `CCOC(=O)/C=C/c1ccccc1` [ethyl cinnamate], the melting point amounted to 7 °C.

In turn, `Nc1cn[nH]c1` [4-amino-1h-pyrazole] returned a melting point of 75 °C.

Turning to `CCCC(O)(CCC)C1(C)CCC(C(=O)O)C(C)(C)O1` (stereo not drawn), the melting point stood at 112 °C.

Regarding `[2H]OC([2H])([2H])C([2H])(O[2H])C([2H])([2H])O[2H]` [(~2~H_5_)Propane-1,2,3-(~2~H_3_)triol], the melting point was 20 °C.

For `O=C(O)C1=Cc2cc(Cl)ccc2OC1` [6-chloro-2h-chromene-3-carboxylic acid], the melting point turned out to be 243 °C.

Consider `Clc1ccc(Cl)cc1` [1,4-Dichlorobenzene], for which the melting point was determined as 53 °C.

On to `C/C=C/c1ccc(OC)cc1` [trans-anethole], for which the melting point stood at 23 °C.

As to `CC(=O)S` [thioacetic acid], the melting point is -17 °C.

On to `O=C(O)c1ccccc1/N=N/c1ccc(O)cc1` [2-(4-hydroxyphenyl-azo)benzoic acid], for which the melting point is 206 °C.

Consider `CCCCCCCCCCCCCCCCCCCCCCCCCCCCCCCCCCCCCCCCCCCC` [tetratetracontane], for which the melting point is 88 °C.

Turning to `OC1CCCCC1` [Cyclohexanol], the melting point amounted to 21 °C.

For `Cc1ccccc1NC=O` [N-(2-Methylphenyl)formamide], the melting point turned out to be 53 °C.

Regarding `ON=Cc1c(F)cccc1Cl` [2-chloro-6-fluorobenzaldoxime], the melting point was 126 °C.

`C=C(C)Br` [2-bromopropene] returned a melting point of -87 °C.

`CCOC(=O)c1cc2c(oc1=O)-c1ccc(OC)cc1CC2` returned a melting point of 142 °C.

`c1ccc2cc3cc4ccccc4cc3cc2c1` [naphthacene]: the melting point was found to be 357 °C.

`OO` [Hydrogen peroxide]: the melting point was -40 °C.

Turning to `Cn1ncc(Br)c1N` [5-amino-4-bromo-1-methyl-1h-pyrazole], the melting point turned out to be 99 °C.

Turning to `O=[N+]([O-])c1ccc(/N=N/c2c(O)ccc3ccccc23)cc1` [1-(4-nitrophenylazo)-2-naphthol], the melting point turned out to be 250 °C.

`COc1cc(Cl)c(Cl)c(Cl)c1Cl` [1-methoxy-2,3,4,5-tetrachlorobenzene] came in with a melting point of 88 °C.

Compound `N#Cc1ccc(I)cc1` [4-iodobenzonitrile] registered a melting point of 126 °C.

Compound `O=C(O)/C=C/C(=O)O` [Fumaric Acid] registered a melting point of 287 °C.

For `CCCCCCCCCCCCCCCCCC(=O)O[C@H]1[C@H](O[C@@H]2[C@@H](C)[C@H](O[C@H]3C[C@@](C)(OC)[C@@H](O)[C@H](C)O3)[C@@H](C)C(=O)O[C@H](CC)[C@@](C)(O)[C@H](O)[C@@H](C)C(=O)[C@H](C)C[C@@]2(C)O)O[C@H](C)C[C@@H]1N(C)C`, the melting point amounted to 102 °C.

`COc1ccc(OC)c(C(O)CNC(=O)CN)c1` (stereo not drawn) [Midodrine] returned a melting point of 202 °C.

As for `CN1CCC(CN2c3ccccc3Sc3ccccc32)C1` (stereo not drawn) [methdilazine], the melting point stood at 87 °C.

As for `CC1CCCC1` [methylcyclopentane], the melting point was -142 °C.

Take `CCC(C)(CO)CO` [2-ethyl-2-methyl-1,3-propanediol]: the melting point amounted to 44 °C.

`CCCCCCCCCCCCN(CCCCCCCCCCCC)CCCCCCCCCCCC` [tri-n-dodecylamine] registered a melting point of 15 °C.

In turn, `OB(O)c1cc(Cl)cnc1Cl` [2,5-dichloropyridine-3-boronic acid] displayed a melting point of 154 °C.

`O=[N+]([O-])c1ccccc1O` [nitrophenol] showed a melting point of 45 °C.
